We go through four compounds from US4436726A, “N-Acylpeptide compound, processes for the preparation thereof and the pharmaceutical compositions” (Fujisawa Pharmaceutical Co., Ltd., priority 1980, dated 1984).

In experiment [1] the test system is nephrotoxin-type nephritis. As to the kind of experiment: Therapeutic effect on nephrotoxin-type nephritis (modified type of Masugi nephritis), proteinuria level. The format is in vivo. Particulars: rats. Here is the method:
(i) Preparation of anti-rat kidney rabbit serum.
The kidneys of SD male rats weighing about 250-300 g were sufficiently perfused with 0.9% saline. The renal cortical tissue was homogenized with 0.9% saline using a Teflon homogenizer. 4 ml of the homogenate was then suspended into the same volume of Freund's complete adjuvant. 2 ml of the said mixture was given subcutaneously to male rabbits weighing about 3 kg. 4 weeks later, 2 ml of the mixture was given intramuscularly as a booster. At the 5th week, a blood sample was taken. The serum separated by centrifugation at 3,000 rpm for 30 minutes was inactivated by heating at 56° C. for 30 minutes and preserved by freezing until just before use.
(ii) Induction of experimental nephritis (modified type of Masugi nephritis)
Experimental nephritis was induced in groups of 5 male rats weighing about 150-200 g by a single intravenous injection of 1 ml of the anti-kidney serum obtained in the above procedures.
(iii) Evaluation of anti-nephritic effect of drugs.
Drugs were given to a group of 5 rats once a day for 5 consecutive days from the 2nd day before the injection of anti-kidney serum. Each drug was dissolved into 3% sodium bicarbonate solution and given intraperitoneally in a volume of 1 ml/rat. In addition to the above drug-treated nephritic group, the non-treated-nephritic group (control) was set in the experiment. The proteinuria level (total) amount excreted into the urine over a 12 hour period) was measured using turbidometry employing bovine serum albumin as a control by means of sulfosalicylic acid.

Experiment [2] relates to complement serum (guinea pig complement). As to the kind of experiment: Anticomplementary activity (inhibition of hemolysis of sensitized erythrocytes). The class given is biochemical. Particulars: 50% hemolysis inhibition, 37° C. Here is the method: The anticomplementary activity of the test compound was measured according to the test method as described in Experimental Immunochemistry, edited by E. A. Kabat and M. M. Mayer, 2nd ed., Springfield, III: C. C. Thomas (1961) pages 133-240.
A mixture of 1 ml of a 5-fold diluted solution of a Veronal buffer solution containing 1.5×10^-4 M Ca^2+ and 5×10^-4 M Mg^2+ and isotonic gelatin, 1.5 ml of complement serum (guinea pig complement) diluted 400 times with a physiological saline solution and 0.05 ml of a solution of a test compound (in this case, a test compound was dissolved in a physiological saline solution) was incubated at 37° C. for 30 minutes. To the said mixture there was added 0.4 ml of sensitized erythrocytes suspension containing 5×10^8 cells/ml and said mixture was incubated at 37° C. further for 60 minutes. After the incubation, the mixture was centrifuged in 3,000 rpm at 4° C. for 10 minutes.
The results are expressed in Table 1 as the concentration of each drugs inhibiting the hemolysis activity by 50% (IC50).

Experiment [3] relates to blood clot (fresh rabbit blood, urokinase, bovine thrombin). As to the kind of experiment: Fibrinolytic activity (modified diluted whole blood clot lysis time method). The class given is biochemical. Particulars: 50 μl of test compound (300 μg/ml), 37° C. Here is the method: The enhancement of the fibrinolytic activity of the test compounds was measured according to the modified diluted whole blood clot lysis time method described in
G. R. Fearnley, G. V. Balmforth, E. Fearnley: Clin. Sci. 16, 645-650 (1957)
I. S. Chohan et al: Thrombos. Diathes. Haemorrh. 33, 226 (1975) and
I. M. Nilsson et al: Handbook of Experimental Pharmacology 46, 110
Fresh rabbit blood was diluted 20 times with 1/15 M phosphate buffer (pH 7.4). A mixture of 400 μl of the diluted blood solution and 50 μl of a test compound (300 μg/ml) was incubated at 37° C. for 30 minutes. To the mixture were added 50 μl of urokinase solution (100 IU/ml) and 50 μl of bovine thrombin (100 N.I.H. u/ml). The clot produced in tubes was incubated at 37° C. for various periods of time. At the end of each incubation interval (15 minutes interval), 2.5 ml of distilled water was added to lyse erythrocytes released from clotted blood and absorbance (OD541) of the supernatant separated by centrifugation (3,000 rpm for 10 minutes) from the reaction mixture was measured. The fibrinolytic activity of the test compound was determined by the time in minutes needed for the complete lysis of the blood clot.
In the absence of a test compound, it took more than 2 hours to lyse blood clot in the above condition. However, blood clot was lysed in the presence of test compounds after 15 minutes (symbol: ++) and 45 minutes (symbol: +) incubation, respectively. Samples which were incapable of lysing blood clot within 1 hour incubation were expressed as symbol (-).

Setting [4] is: 10 mg/kg intraperitoneally once a day for 5 days.
Where [5] appears, read: 30 mg/kg intraperitoneally once a day for 5 days.

With `CCCCCCCCCCCCCCCC(=O)OC(CCCCCCCCCCCCCCC)CC(=O)NCC(=O)N[C@@H](CO)C(=O)O` (stereo partly drawn) [Example 2, N-[N-(3-hexadecanoyloxyoctadecanoyl)glycyl]-L-serine], in experiment [1] (setting [4]), the “protein uria level, 1st day” value is 5.9 mg/12 hours; the “protein uria level, 4th day” value was determined as 3.7 mg/12 hours; the “protein uria level, 7th day” value worked out at 39.6 mg/12 hours. Moreover, in experiment [1] (setting [5]), the “protein uria level, 1st day” value is reported as 3.5 mg/12 hours; the “protein uria level, 4th day” value is 5.5 mg/12 hours; the “protein uria level, 7th day” value was 16.5 mg/12 hours. Also, the “Anticomplementary Activity (IC50)” value in experiment [2] is 0.03 to 0.04 µg/mL.
Consider `CCCCCCCCCCCCCCCC(=O)OC(CCCCCCCCCCCCCCC)CC(=O)NCC(=O)N[C@@H](Cc1ccccc1)C(=O)O` (stereo partly drawn) [Example 38, N-[N-(3-hexadecanoyloxyoctadecanoyl)glycyl]-L-phenylalanine], for which, in experiment [3], the “Fibrinolytic Activity (time needed for complete lysis of the blood clot)” value is on record as “+ (45 minutes (symbol: +) incubation)”. Also, the “Anticomplementary Activity (IC50)” value in experiment [2] was 3.4 µg/mL.
The like results for `CC(C)CCCCCCCCCCCC(=O)OC(CCCCCCCCCCCC(C)C)CC(=O)NCC(=O)N[C@@H](Cc1ccc(O)cc1)C(=O)O` (stereo partly drawn) [Example 18, N-[N-[15-methyl-3-(13-methyltetradecanoyloxy)hexadecanoyl]glycyl]-L-tyrosine] were, in that order, “+ (45 minutes (symbol: +) incubation)” and 3.2 µg/mL.
The corresponding values for `CC(C)CCCCCCCCCCCC(=O)OC(CCCCCCCCCCCC(C)C)CC(=O)NCC(=O)N[C@H](C(=O)O)[C@@H](C)O` (stereo partly drawn) [Example 11, N-[N-[15-methyl-3-(13-methyltetradecanoyloxy)hexadecanoyl]glycyl]-L-threonine] are “+ (45 minutes (symbol: +) incubation)” and 0.36 µg/mL.
